For one assay, the target named is T1, IL-17A/A (Homo sapiens, UniProt Q16552).
T1 construct: purchased Genscript Z03228
T1 sequence (Q16552 24-155): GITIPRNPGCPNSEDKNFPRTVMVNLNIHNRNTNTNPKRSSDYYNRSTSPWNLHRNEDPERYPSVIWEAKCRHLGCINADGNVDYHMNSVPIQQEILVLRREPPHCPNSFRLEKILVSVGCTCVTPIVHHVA
Put plainly: IL-17A/A HEK-Blue cell assay (SEAP reporter). It is filed as cell-based. The note with it: HEK-Blue IL-17A reporter cells, IL17A/A 5 ng/mL, 20 hours, SEAP read at A630; read-out: HEK-Blue IL17AA (IC50 for IL-17A/A inhibition).

The next assay deals with T2, IL-17A/F (Homo sapiens, UniProt Q16552+Q96PD4).
T2 construct: purchased R&D Systems
T2 sequence (Q16552 24-155): T1 sequence (Q16552 24-155)
T2 sequence (Q96PD4 31-163): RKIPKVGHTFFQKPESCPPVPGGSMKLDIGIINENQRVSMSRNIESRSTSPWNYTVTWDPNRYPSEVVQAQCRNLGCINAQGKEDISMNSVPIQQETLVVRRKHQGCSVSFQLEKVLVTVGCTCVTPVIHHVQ
Put plainly: IL-17A/F HEK-Blue cell assay (SEAP reporter). Format: cell-based. The note with it: HEK-Blue IL-17A reporter cells, IL17A/F 5 ng/mL, 20 hours, SEAP read at A630; read-out: HEK-Blue IL17AF (IC50 for IL-17A/F inhibition).

This is an account of results in patent US20260226068A1, “IMIDAZOTRIAZINE IL-17A MODULATORS AND USES THEREOF” (DICE ALPHA, INC., priority 2023, published 2026).

Structures are written as SMILES.

As to `CCn1nccc1C(=O)N[C@H](c1cn2nc(C[C@@H]3C(=O)NC[C@@H]4C[C@@H]43)c(C3CCOCC3)nc2n1)C1CCC(F)(F)CC1` [Compound 427], the IC50 is 100 to 1000 nM at IL-17A/A and greater than 1000 nM on IL-17A/F.

Consider `CCn1nccc1C(=O)N[C@H](c1cn2nc(C[C@H]3C[C@@H](C(F)(F)F)CNC3=O)c(CN3CC(C(F)(F)F)C3)nc2n1)C1CCC(F)(F)CC1` [Compound 336, N—((S)-(4,4-difluorocyclohexyl)(2-(((3R,5R)-2-oxo-5-(trifluoromethyl)piperidin-3-yl)methyl)-3-((3-(trifluoromethyl)azetidin-1-yl)methyl)imidazo[1,2-b][1,2,4]triazin-6-yl)methyl)-1-ethyl-1H-pyrazole-5-carboxamide], for which the IC50 was less than 100 nM on IL-17A/A and 100 to 1000 nM at IL-17A/F.

Take `CCn1nccc1C(=O)N[C@H](c1cn2nc(CC3C[C@@H](C(F)(F)F)CNC3=O)c(N3CCOCC3)nc2n1)[C@H]1CCCC(F)(F)C1` (single isomer, unassigned) [Compound 91]: the IC50 at IL-17A/A was less than 100 nM; at IL-17A/F, 100 to 1000 nM.

`Cc1nonc1C(=O)N[C@H](c1cn2nc(C[C@H]3C[C@@H](C(F)(F)F)CNC3=O)c(C3CCOCC3)nc2n1)C1CCCCC1` [Compound 313, N—((S)-cyclohexyl(2-(((3R,5R)-2-oxo-5-(trifluoromethyl)piperidin-3-yl)methyl)-3-(tetrahydro-2H-pyran-4-yl)imidazo[1,2-b][1,2,4]triazin-6-yl)methyl)-4-methyl-1,2,5-oxadiazole-3-carboxamide]: the IC50 is less than 100 nM on IL-17A/A and greater than 1000 nM at IL-17A/F.

`CCn1nccc1C(=O)N[C@H](c1cn2nc(C[C@H]3C[C@@H](C(F)(F)F)CNC3=O)c(C3(C)CCCOC3)nc2n1)C1CCC(F)(F)CC1` (single isomer, unassigned) [Compound 177]: the IC50 is less than 100 nM at IL-17A/A and 100 to 1000 nM on IL-17A/F.

`CC(C)n1nccc1C(=O)N[C@H](c1cn2nc(CC3C[C@@H](C(F)(F)F)CNC3=O)c(N3CCOCC3)nc2n1)[C@H]1CC[C@H](C)CC1` (single isomer, unassigned) [Compound 100]: the IC50 at IL-17A/A and at IL-17A/F was less than 100 nM in each case.

For `CCn1nccc1C(=O)N[C@H](c1cn2nc(C[C@H]3C[C@@H](C(F)(F)F)CNC3=O)c(C(C)C(F)(F)F)nc2n1)C1CCC(F)(F)CC1` (single isomer, unassigned) [Compound 175], the IC50 on IL-17A/A was less than 100 nM; on IL-17A/F, 100 to 1000 nM.

Consider `CCn1nccc1C(=O)N[C@H](c1cn2nc(C[C@H]3CC(F)(F)CNC3=O)c(C3CCOCC3)nc2n1)C1CCC(F)(F)CC1` [Compound 279], for which the IC50 at IL-17A/A was less than 100 nM; on IL-17A/F it was greater than 1000 nM.

Take `CCn1nccc1C(=O)N[C@H](c1cn2nc(C[C@H]3C[C@@H](C(F)(F)F)CNC3=O)c(CN3CC4CC(C3)C4(F)F)nc2n1)C1CCC(F)(F)CC1` [Compound 348, N-((1S)-(3-((6,6-difluoro-3-azabicyclo[3.1.1]heptan-3-yl)methyl)-2-(((3R,5R)-2-oxo-5-(trifluoromethyl)piperidin-3-yl)methyl)imidazo[1,2-b][1,2,4]triazin-6-yl)(4,4-difluorocyclohexyl)methyl)-1-ethyl-1H-pyrazole-5-carboxamide]: the IC50 on IL-17A/A is less than 100 nM; on IL-17A/F it was 100 to 1000 nM.

Turning to `Cn1nccc1C(=O)N[C@H](c1cn2nc(CC3C[C@@H](C(F)(F)F)CNC3=O)cnc2n1)C1CCC(F)(F)CC1` (stereo partly drawn) [Compound 3, N—((S)-(4,4-difluorocyclohexyl)(2-(((5R)-2-oxo-5-(trifluoromethyl)piperidin-3-yl)methyl)imidazo[1,2-b][1,2,4]triazin-6-yl)methyl)-1-methyl-1H-pyrazole-5-carboxamide], the IC50 on IL-17A/A is 100 to 1000 nM; on IL-17A/F, greater than 1000 nM.

For `CCn1nccc1C(=O)N[C@H](c1cn2nc(CC3C[C@@H](C(F)(F)F)CNC3=O)cnc2n1)C1CCC(F)(F)CC1` (some centres unmarked) [Compound 24], the values for the IC50 at IL-17A/A and at IL-17A/F were 100 to 1000 nM and greater than 1000 nM, respectively.

Take `CC(C)n1nccc1C(=O)N[C@H](c1cn2nc(CC3C[C@@H](C(F)(F)F)CNC3=O)c(N3CC4CC(C3)O4)nc2n1)[C@@H]1CCCC(F)(F)C1` (single isomer, unassigned) [Compound 131]: the IC50 was less than 100 nM on IL-17A/A and greater than 1000 nM at IL-17A/F.

Take `CC(C)n1nccc1C(=O)N[C@H](c1cn2nc(C[C@H]3C[C@@H](C(F)(F)F)CNC3=O)c(C3CCOC3)nc2n1)C1CCC(F)(F)CC1` (single isomer, unassigned) [Compound 132]: the figures for the IC50 at IL-17A/A and at IL-17A/F were less than 100 nM and 100 to 1000 nM, respectively.

For `CCn1nccc1C(=O)N[C@H](c1cn2nc(C[C@H]3C[C@@H](C(F)(F)F)CNC3=O)cnc2n1)C1CCC(F)(F)CC1` [Compound 27], the IC50 at IL-17A/A is less than 100 nM; at IL-17A/F it was greater than 1000 nM.

In the case of `CCn1nccc1C(=O)N[C@H](c1cn2nc(C[C@H]3C[C@@H](C(F)(F)F)CNC3=O)c(N(C)C3COC3)nc2n1)C1CCC(F)(F)CC1` [Compound 180, N—((S)-(4,4-difluorocyclohexyl)(3-(methyl(oxetan-3-yl)amino)-2-(((3R,5R)-2-oxo-5-(trifluoromethyl)piperidin-3-yl)methyl)imidazo[1,2-b][1,2,4]triazin-6-yl)methyl)-1-ethyl-1H-pyrazole-5-carboxamide], the IC50 on IL-17A/A is 100 to 1000 nM; on IL-17A/F, greater than 1000 nM.

For `CCn1nccc1C(=O)N[C@H](c1cn2nc(C[C@H]3C[C@@H](C(F)(F)F)CNC3=O)c([C@@H]3CCCCN3)nc2n1)C1CCC(F)(F)CC1` (single isomer, unassigned) [Compound 324], the IC50 on IL-17A/A was 100 to 1000 nM; on IL-17A/F, greater than 1000 nM.

In the case of `CCn1nccc1C(=O)N[C@H](c1cn2nc(C[C@@H]3CC(F)(F)CNC3=O)cnc2n1)C1CCC(F)(F)CC1` (single isomer, unassigned) [Compound 63], the IC50 at IL-17A/A is 100 to 1000 nM; at IL-17A/F, greater than 1000 nM.

Turning to `CCn1nccc1C(=O)N[C@H](c1cn2nc(CC3C[C@@H](C(F)(F)F)CNC3=O)c(N3CCOCC3)nc2n1)C(C1CC1)C1CC1` (single isomer, unassigned) [Compound 112], the IC50 on IL-17A/A was less than 100 nM; at IL-17A/F it was 100 to 1000 nM.

As for `CCn1nccc1C(=O)N[C@H](c1cn2nc(C[C@H]3CCCNC3=O)c(C3CCOCC3)nc2n1)C1CCC(F)(F)CC1` [Compound 379], the IC50 on IL-17A/A is less than 100 nM; at IL-17A/F, greater than 1000 nM.

On to `CCn1nccc1C(=O)N[C@H](c1cn2nc(C[C@H]3C[C@@H](C(F)(F)F)CNC3=O)c(CN3CCOCC3)nc2n1)C(C1CC1)C1CC1` [Compound 406, N—((S)-2,2-dicyclopropyl-1-(3-(morpholinomethyl)-2-(((3R,5R)-2-oxo-5-(trifluoromethyl)piperidin-3-yl)methyl)imidazo[1,2-b][1,2,4]triazin-6-yl)ethyl)-1-ethyl-1H-pyrazole-5-carboxamide], for which the values for the IC50 at IL-17A/A and on IL-17A/F were less than 100 nM and 100 to 1000 nM, respectively.

On to `CCc1nonc1C(=O)N[C@H](c1cn2nc(CC3C[C@@H](C(F)(F)F)CNC3=O)cnc2n1)C1CCC(F)(F)CC1` (stereo partly drawn) [Compound 11, N—((S)-(4,4-difluorocyclohexyl)(2-(((5R)-2-oxo-5-(trifluoromethyl)piperidin-3-yl)methyl)imidazo[1,2-b][1,2,4]triazin-6-yl)methyl)-4-ethyl-1,2,5-oxadiazole-3-carboxamide], for which the IC50 at IL-17A/A is 100 to 1000 nM; at IL-17A/F, greater than 1000 nM.

For `CCn1nccc1C(=O)N[C@H](c1cn2nc(CC3C[C@@H](C(F)(F)F)CNC3=O)c(N(C)C)nc2n1)C1CCC(F)(F)CC1` (single isomer, unassigned) [Compound 49], the IC50 was less than 100 nM on IL-17A/A and greater than 1000 nM on IL-17A/F.

As to `O=C(N[C@H](c1cn2nc(CC3C[C@@H](C(F)(F)F)CNC3=O)c(N3CCOCC3)nc2n1)C1CCC(F)(F)CC1)c1conc1C1CC1(F)F` (single isomer, unassigned) [Compound 114], the IC50 on IL-17A/A was less than 100 nM; on IL-17A/F it was greater than 1000 nM.

Regarding `CCn1nccc1C(=O)N[C@H](c1cn2nc(C[C@H]3CC(F)(F)CNC3=O)c(C3CCOCC3)nc2n1)C(C1CC1)C1CC1` [Compound 323], the IC50 at IL-17A/A was less than 100 nM; on IL-17A/F, greater than 1000 nM.

Turning to `O=C(N[C@H](c1cn2nc(C[C@H]3C[C@@H](C(F)(F)F)CNC3=O)cnc2n1)C1CCC(F)(F)CC1)c1conc1CCF` [Compound 40], the IC50 on IL-17A/A was 100 to 1000 nM; at IL-17A/F, greater than 1000 nM.

Consider `CCn1nccc1C(=O)N[C@H](c1cn2nc(CC3C[C@@H](C(F)(F)F)CNC3=O)cnc2n1)[C@H]1CC[C@H](C)CC1` (single isomer, unassigned) [Compound 1], for which the figures for the IC50 on IL-17A/A and on IL-17A/F were less than 100 nM and greater than 1000 nM, respectively.

On to `CCn1nccc1C(=O)N[C@H](c1cn2nc(C[C@H]3C[C@@H](C(F)(F)F)CNC3=O)c(C3(C)CCOC3)nc2n1)C1CCC(F)(F)CC1` (single isomer, unassigned) [Compound 166], for which the IC50 on IL-17A/A is less than 100 nM; on IL-17A/F, 100 to 1000 nM.

For the compound `CCn1nccc1C(=O)N[C@H](c1cn2nc(C[C@H]3C[C@@H](C(F)(F)F)CNC3=O)c(C3CCCN(C)C3)nc2n1)C1CCC(F)(F)CC1` (single isomer, unassigned) [Compound 403], the IC50 was less than 100 nM at IL-17A/A and greater than 1000 nM at IL-17A/F.
